We go through 26 compounds from US20240124491A1, “METHODS AND COMPOUNDS FOR TREATING FRIEDREICH'S ATAXIA” (Design Therapeutics, Inc., priority 2021, published 2024).

This experiment concerns human FXN. The experiment in a line: EC50 assay: FXN mRNA expression by qRT-PCR in GM15850 cells after 48 hrs compound treatment. Format: cell-based. The following applies: Homo sapiens, 48 hrs incubation, hFXN expression normalized to hGAPDH (qRT-PCR), read-out: EC50 WT (nM, 48 hr). An outline of the steps: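 FXN transcript, normalized to GAPDH by TaqMan qRT-PCR, read out after 48 hrs of compound on GM15850 cells plated at 150,000 per well. Dosing used five 3-fold steps from 150 nM final, vehicle 0.01% DMSO.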

Bounds are passed on as bounds.

For `Cc1sc2c(c1C)C(c1ccc(Cl)cc1)=N[C@@H](CC(=O)NC1CCN(CCOCCOCCOCCOCCOCCOCCOCCNC3CCN(C(=O)CCNC(=O)c4nc(NC(=O)CCNC(=O)c5nc(NC(=O)c6nc(NC(=O)CCNC(=O)c7cc(NC(=O)c8nccn8C)cn7C)cn6C)cn5C)cn4C)CC3)CC1)c1nnc(C)n1-2` [Compound 99], the EC50 fell in the range of 100 to 500 nM.
With `Cc1sc2c(c1C)C(c1ccc(Cl)cc1)=N[C@@H](CC(=O)N1CCN(CCOCCOCCOCCOCCOCCOCCOCCOCCNC(=O)CCNC(=O)c3nc(NC(=O)CCNC(=O)c4cc(NC(=O)c5nc(NC(=O)CCNC(=O)c6cc(NC(=O)c7nccn7C)cn6C)cn5C)cn4C)cn3C)CC1)c1nnc(C)n1-2` [Compound 101] the figure was more than 500 nM.
With `Cc1sc2c(c1C)C(c1ccc(Cl)cc1)=N[C@@H](CC(=O)Nc1ccc(C#CC#CCN(CCOCCOCCOCCOCCOCCN)CCOCCOCCOCCOCCOCCNC(=O)CCNC(=O)c3nc(NC(=O)CCNC(=O)c4cc(NC(=O)c5nc(NC(=O)CCNC(=O)c6cc(NC(=O)c7nccn7C)cn6C)cn5C)cn4C)cn3C)cc1)c1nnc(C)n1-2` [Compound 104] the figure was 100 to 500 nM.
With `Cc1sc2c(c1C)C(c1ccc(Cl)cc1)=N[C@@H](CC(=O)NC1CCN(CCOCCOCCN3CCN(CCOCCOCCOCCOCCNC(=O)CCNC(=O)c4nc(NC(=O)CCNC(=O)c5cc(NC(=O)c6nc(NC(=O)CCNC(=O)c7cc(NC(=O)c8nccn8C)cn7C)cn6C)cn5C)cn4C)CC3)CC1)c1nnc(C)n1-2` [Compound 106] the figure was less than 100 nM; with `Cc1sc2c(c1C)C(c1ccc(Cl)cc1)=N[C@@H](CC(=O)NC1CCN(CCCCCN3CCN(CCOCCOCCOCCOCCOCCNC(=O)CCNC(=O)c4nc(NC(=O)CCNC(=O)c5cc(NC(=O)c6nc(NC(=O)CCNC(=O)c7cc(NC(=O)c8nccn8C)cn7C)cn6C)cn5C)cn4C)CC3)CC1)c1nnc(C)n1-2` [Compound 107], 100 to 500 nM.
For the compound `Cc1sc2c(c1C)C(c1ccc(Cl)cc1)=N[C@@H](CC(=O)NC1CCN(CCOCCOCCOCCOCCN3CCN(CCOCCOCCNC(=O)CCNC(=O)c4nc(NC(=O)CCNC(=O)c5cc(NC(=O)c6nc(NC(=O)CCNC(=O)c7cc(NC(=O)c8nccn8C)cn7C)cn6C)cn5C)cn4C)CC3)CC1)c1nnc(C)n1-2` [Compound 108], the EC50 is less than 100 nM.
As for `Cc1sc2c(c1C)C(c1ccc(Cl)cc1)=N[C@@H](CC(=O)NC1CCN(CCOCCOCCOCCOCCOCCN3CCN(CCCCCNC(=O)CCNC(=O)c4nc(NC(=O)CCNC(=O)c5cc(NC(=O)c6nc(NC(=O)CCNC(=O)c7cc(NC(=O)c8nccn8C)cn7C)cn6C)cn5C)cn4C)CC3)CC1)c1nnc(C)n1-2` [Compound 109], the concentration giving a half-maximal response (EC50) was in the range of 100 to 500 nM.
Under `Cc1sc2c(c1C)C(c1ccc(Cl)cc1)=N[C@@H](CC(=O)NCCOCCOCCOCCN(CCOCCOCCOCCNC(=O)C[C@@H]1N=C(c3ccc(Cl)cc3)c3c(sc(C)c3C)-n3c(C)nnc31)CCOCCOCCOCCOCCOCCNC(=O)CCNC(=O)c1nc(NC(=O)CCNC(=O)c3cc(NC(=O)c4nc(NC(=O)CCNC(=O)c5cc(NC(=O)c6nccn6C)cn5C)cn4C)cn3C)cn1C)c1nnc(C)n1-2` [Compound 111] stands less than 100 nM; under `Cc1sc2c(c1C)C(c1ccc(Cl)cc1)=N[C@@H](CC(=O)NC1CCN(CCOCCOCCN(CCOCCOCCOCCOCCOCCNC(=O)CCNC(=O)c3nc(NC(=O)CCNC(=O)c4cc(NC(=O)c5nc(NC(=O)CCNC(=O)c6cc(NC(=O)c7nccn7C)cn6C)cn5C)cn4C)cn3C)CCOCCOCCN3CCC(NC(=O)C[C@@H]4N=C(c5ccc(Cl)cc5)c5c(sc(C)c5C)-n5c(C)nnc54)CC3)CC1)c1nnc(C)n1-2` [Compound 112], 100 to 500 nM.
Under `Cc1sc2c(c1C)C(c1ccc(Cl)cc1)=N[C@@H](CC(=O)NCCCCCN(CCCCCNC(=O)C[C@@H]1N=C(c3ccc(Cl)cc3)c3c(sc(C)c3C)-n3c(C)nnc31)CCOCCOCCOCCOCCOCCNC(=O)CCNC(=O)c1nc(NC(=O)CCNC(=O)c3cc(NC(=O)c4nc(NC(=O)CCNC(=O)c5cc(NC(=O)c6nccn6C)cn5C)cn4C)cn3C)cn1C)c1nnc(C)n1-2` [Compound 113] stands less than 100 nM; under `Cc1sc2c(c1C)C(c1ccc(Cl)cc1)=N[C@@H](CC(=O)NCCCCCN(CCCCCNC(=O)C[C@@H]1N=C(c3ccc(Cl)cc3)c3c(sc(C)c3C)-n3c(C)nnc31)CCOCCOCCOCCOCCOCCOCCOCCNC(=O)CCNC(=O)c1nc(NC(=O)CCNC(=O)c3cc(NC(=O)c4nc(NC(=O)CCNC(=O)c5cc(NC(=O)c6nccn6C)cn5C)cn4C)cn3C)cn1C)c1nnc(C)n1-2` [Compound 114], less than 100 nM; under `COc1nnc2ccc(N3CCC(c4ccc(OCCN5[C@H](C)CN(C(=O)COCCOCCOCCOCCOCCOCCOCCOCCNC(=O)CCNC(=O)c6nc(NC(=O)CCNC(=O)c7cc(NC(=O)c8nc(NC(=O)CCNC(=O)c9cc(NC(=O)c%10nccn%10C)cn9C)cn8C)cn7C)cn6C)C[C@@H]5C)cc4)CC3)nn12` [Compound 115], more than 500 nM.
With `COc1nnc2ccc(N3CCC(c4ccc(OCCN5CCN(CCOCCOCCOCCOCCOCCOCCOCCOCCNC(=O)CCNC(=O)c6nc(NC(=O)CCNC(=O)c7cc(NC(=O)c8nc(NC(=O)CCNC(=O)c9cc(NC(=O)c%10nccn%10C)cn9C)cn8C)cn7C)cn6C)C(=O)[C@H]5C)cc4)CC3)nn12` [Compound 116] the figure was more than 500 nM.
With `Cc1sc2c(c1C)C(c1ccc(Cl)cc1)=N[C@@H](CC(=O)NCCOCCOCCOCCOCCOCCOCCOCCNC(=O)c1sc3c(c1C)C(c1ccc(Cl)cc1)=N[C@@H](CC(=O)NC1CCN(CCOCCOCCOCCOCCOCCOCCOCCOCCNC(=O)CCNC(=O)c4nc(NC(=O)CCNC(=O)c5cc(NC(=O)c6nc(NC(=O)CCNC(=O)c7cc(NC(=O)c8nccn8C)cn7C)cn6C)cn5C)cn4C)CC1)c1nnc(C)n1-3)c1nnc(C)n1-2` [Compound 117], the EC50 was less than 100 nM.
For the compound `Cc1sc2c(c1C)C(c1ccc(N)cc1)=N[C@@H](CC(=O)N1CCC(C#CC#CC3CCN(CCOCCOCCOCCOCCNC(=O)CCNC(=O)c4nc(NC(=O)CCNC(=O)c5cc(NC(=O)c6nc(NC(=O)CCNC(=O)c7cc(NC(=O)c8nccn8C)cn7C)cn6C)cn5C)cn4C)CC3)CC1)c1nnc(C)n1-2` [Compound 119], the EC50 is less than 100 nM.
With `COCCOCCOCCOCCOCCOCCOCCOCCOCCOCCOCCC(=O)Nc1ccc(C2=N[C@@H](CC(=O)N3CCC(C#CC#CC4CCN(CCOCCOCCOCCOCCNC(=O)CCNC(=O)c5nc(NC(=O)CCNC(=O)c6cc(NC(=O)c7nc(NC(=O)CCNC(=O)c8cc(NC(=O)c9nccn9C)cn8C)cn7C)cn6C)cn5C)CC4)CC3)c3nnc(C)n3-c3sc(C)c(C)c32)cc1` [Compound 120] the figure was 100 to 500 nM.
Take `Cc1sc2c(c1C)C(c1ccc(NC(=O)COCCOCCOCCN3CCN(CC4CCN(C)CC4)CC3)cc1)=N[C@@H](CC(=O)N1CCC(C#CC#CC3CCN(CCOCCOCCOCCOCCNC(=O)CCNC(=O)c4nc(NC(=O)CCNC(=O)c5cc(NC(=O)c6nc(NC(=O)CCNC(=O)c7cc(NC(=O)c8nccn8C)cn7C)cn6C)cn5C)cn4C)CC3)CC1)c1nnc(C)n1-2` [Compound 121]: the EC50 fell in the range of 100 to 500 nM.
With `Cc1sc2c(c1C)C(c1ccc(Cl)cc1)=N[C@@H](CC(=O)N1CCC(C#CC#CCN(CCOCCOCCOCCOCCOCCNC(=O)CCNC(=O)c3nc(NC(=O)CCNC(=O)c4cc(NC(=O)c5nc(NC(=O)CCNC(=O)c6cc(NC(=O)c7nccn7C)cn6C)cn5C)cn4C)cn3C)CC(O)COCC(O)CO)CC1)c1nnc(C)n1-2` (some centres unmarked) [Compound 122] the figure was 100 to 500 nM; with `Cc1sc2c(c1C)C(c1ccc(Cl)cc1)=N[C@@H](CC(=O)Nc1ccc(N3CCC(N4CCN(CCOCCOCCOCCOCCOCCOCCNC(=O)CCNC(=O)c5nc(NC(=O)CCNC(=O)c6cc(NC(=O)c7nc(NC(=O)CCNC(=O)c8cc(NC(=O)c9nccn9C)cn8C)cn7C)cn6C)cn5C)CC4)CC3)nc1)c1nnc(C)n1-2` [Compound 124], less than 100 nM.
With `Cc1sc2c(c1C)C(c1ccc(Cl)cc1)=N[C@@H](CC(=O)Nc1cncc(N3CCC(N4CCN(CCOCCOCCOCCOCCOCCOCCNC(=O)CCNC(=O)c5nc(NC(=O)CCNC(=O)c6cc(NC(=O)c7nc(NC(=O)CCNC(=O)c8cc(NC(=O)c9nccn9C)cn8C)cn7C)cn6C)cn5C)CC4)CC3)c1)c1nnc(C)n1-2` [Compound 125] the figure was less than 100 nM; with `Cc1sc2c(c1C)C(c1ccc(Cl)cc1)=N[C@@H](CC(=O)N1CC(C#CC#CC3CN(CCOCCOCCOCCOCCNC(=O)CCNC(=O)c4nc(NC(=O)CCNC(=O)c5cc(NC(=O)c6nc(NC(=O)CCNC(=O)c7cc(NC(=O)c8nccn8C)cn7C)cn6C)cn5C)cn4C)C3)C1)c1nnc(C)n1-2` [Compound 126], less than 100 nM; with `Cc1sc2c(c1C)C(c1ccc(Cl)cc1)=N[C@@H](CC(=O)N1CC(C#CC#CC3CN(CCOCCOCCOCCOCCOCCOCCNC(=O)CCNC(=O)c4nc(NC(=O)CCNC(=O)c5cc(NC(=O)c6nc(NC(=O)CCNC(=O)c7cc(NC(=O)c8nccn8C)cn7C)cn6C)cn5C)cn4C)C3)C1)c1nnc(C)n1-2` [Compound 127], less than 100 nM.
Under `Cc1sc2c(c1C)C(c1ccc(Cl)cc1)=N[C@@H](CC(=O)NC(C)(C)C#CC#CCNCCOCCOCCOCCOCCOCCOCCNC(=O)CCNC(=O)c1nc(NC(=O)CCNC(=O)c3cc(NC(=O)c4nc(NC(=O)CCNC(=O)c5cc(NC(=O)c6nccn6C)cn5C)cn4C)cn3C)cn1C)c1nnc(C)n1-2` [Compound 130] stands less than 100 nM.
In the case of `Cc1c(C(=O)NCCN2CCN(C)CC2)sc2c1C(c1ccc(Cl)cc1)=N[C@@H](CC(=O)N1CCC(C#CC#CC3CCN(CCOCCOCCOCCOCCNC(=O)CCNC(=O)c4nc(NC(=O)CCNC(=O)c5cc(NC(=O)c6nc(NC(=O)CCNC(=O)c7cc(NC(=O)c8nccn8C)cn7C)cn6C)cn5C)cn4C)CC3)CC1)c1nnc(C)n1-2` [Compound 131], the EC50 lay in the range of 100 to 500 nM.
With `COCCOCCOCCOCCOCCOCCOCCOCCOCCOCCOCCNC(=O)c1sc2c(c1C)C(c1ccc(Cl)cc1)=N[C@@H](CC(=O)N1CCC(C#CC#CC3CCN(CCOCCOCCOCCOCCNC(=O)CCNC(=O)c4nc(NC(=O)CCNC(=O)c5cc(NC(=O)c6nc(NC(=O)CCNC(=O)c7cc(NC(=O)c8nccn8C)cn7C)cn6C)cn5C)cn4C)CC3)CC1)c1nnc(C)n1-2` [Compound 133] the figure was 100 to 500 nM.
Consider `Cc1c(C(=O)N2CCC(C#CC#CC3CCN(CCOCCOCCOCCOCCNC(=O)CCNC(=O)c4nc(NC(=O)CCNC(=O)c5cc(NC(=O)c6nc(NC(=O)CCNC(=O)c7cc(NC(=O)c8nccn8C)cn7C)cn6C)cn5C)cn4C)CC3)CC2)sc2c1C(c1ccc(Cl)cc1)=N[C@@H](CC(=O)NCCN1CCN(C)CC1)c1nnc(C)n1-2` [Compound 134], for which the concentration for a half-maximal effect (EC50) was 100 to 500 nM.
